Experimental data: patent publication US20260069694A1, “IDENTIFICATION OF HIGHLY IMMUNOSUPRESIVE TREG POPULATION IN TUMOR MICROENVIRONMENTS” (THE TRUSTEES OF COLUMBIA UNIVERSITY IN THE CITY OF NEW YORK, priority 2023, published 2026)
Entries after “also recorded” stand apart in the source; their conditions may differ.

System: naïve CD4+ T cells / CD4+CD25+Foxp3+ iTregs
Experiment: iTreg induction from naive CD4+ T cells in the absence or presence of iRGD or iRGE
Assay type: cell-based, mouse
Protocol: Naïve CD4^+ T cells and nTregs were isolated from the spleen of healthy C57B6129SF1/J mice by magnetic separation using a mouse CD4+ T cell isolation kit and PE-conjugated anti-mouse CD25 with anti-PE magnetic separation micro beads (Miltenyi Biotec™). The isolated T cells were stimulated with anti-CD3/CD28 beads (×25 dilution; Miltenyi Biotec™) in the presence or absence of recombinant mouse TGF-β1 (5 ng/ml; Bio-Techne™ Corporation) for 3 days. iRGD (100 μM) or iRGE (100 μM) peptide was added to the cultures in some experiments. To study the effect of TGF-β1 on the induction of αvβ5 integrin+ iTregs, naïve CD4+ T cells were cultured with anti-CD3/CD28 beads (x 25 dilution) and TGF-β1 (5 ng/ml) in the presence or absence of varying concentrations of a TGF-βR1 inhibitor (LY2157299; Selleck™ Chemicals LLC). To study the effect of TCR stimulation on the induction of αvβ5 integrin+ iTregs, naïve CD4+ T cells treated with varying concentrations of plate-coated anti-mouse CD3 Ab (eBioscience™) in the presence of soluble anti-mouse CD28 Ab (2 μg/ml) (eBioscience™) and TGF-β1 (5 ng/ml). The cells were subjected to flow cytometry as described elsewhere.
For the data presented in FIG. 31, FIG. 32A, and FIG. 32B, naïve CD4+ T cells were stimulated with anti-CD3/CD28 Abs and TGF-β1 in the absence or presence of iRGD or iRGE. Flow cytometry was performed to quantify the proportion of CD4+CD25+Foxp3+ iTregs (see FIG. 31) and αvβ5 integrin+ cells among the iTregs (See FIG. 32A). Apoptosis of αvβ5 integrin+ iTregs was quantitated by measuring cleaved caspase 3 using flow cytometry (see FIG. 32B; n=3).
To investigate whether iRGD Reduces CD4+CD25+Foxp3+ iTregs in an RGD-Dependent Manner in Vitro, naïve CD4+ T cells were stimulated with anti-CD3/CD28 Abs and TGF-β1 in the absence or presence of the iRGD or iRGE peptide. The resulting cells were subjected to flow cytometry to analyze the expression of CD25 and Foxp3 in the CD4+ T cells (FIG. 33A) and the expression of the αvβ5 integrin and NRP-1 on CD4+CD25+Foxp3+ iTregs (FIG. 33B). The bar diagram in (FIG. 33C) summarizes the proportion of NRP-1+ cells among the iTregs. The statistical analysis used was the one-way ANOVA; p=0.8221. n=3 per group.
The proportion of apoptotic αvβ5 integrin+ iTregs (FIG. 34) and CD4+Foxp3neg T cells (FIG. 35) was quantitated by measuring cleaved caspase 3 using flow cytometry. The statistical analysis used was Welch's t test; p=0.0705 (n=3). The dot plots and histograms of FIG. 33C and FIG. 35 show representative data from the 3 independent experiments. The error bars indicate the mean±standard error; N.S., not significant.

[1] = peptide 100 μM, anti-CD3/CD28 Abs and TGF-β1

Question: For CRGDKGPDC [iRGD], which “apoptosis of CD4+Foxp3neg T cells (cleaved caspase 3)” value (flow cytometry) is on record?
Answer: Its value is “Neither iRGD nor iRGE increased the apoptosis”.

Question: What about the “apoptosis of αvβ5 integrin+ Tregs (cleaved caspase 3)” value (flow cytometry) of the same sequence?
Answer: The value was “induces apoptosis of αvβ5 integrin^+ Tregs in an RGD-dependent manner; also recorded: increased apoptosis”.

Question: And the “proportion of NRP-1-positive iTregs” value (peptide 100 μM)?
Answer: The value was “did not alter the proportion”.

Question: What about the “proportion of CD4+CD25+Foxp3+ iTregs” value [1] of the same sequence?
Answer: Its value is “reduction”.

Question: What about the “αvβ5 integrin-positive population among the iTregs” value [1] of the same sequence?
Answer: The value was “reduction”.
